Where two headings read alike, the source gives them in different places.
Assays:
Alpha2B = target: T1, Alpha2B (Homo sapiens, UniProt P18089); test: PDSP primary binding Alpha2B; conditions: 1.5 h; primary binding, 10,000 nM; last figure of the line = mean of the 4 before it; read-out: Alpha2B, PDSP raw data, mean
T1 construct: purchased NIMH Psychoactive Drug Screening Program (PDSP)
T1 sequence (P18089 1-450): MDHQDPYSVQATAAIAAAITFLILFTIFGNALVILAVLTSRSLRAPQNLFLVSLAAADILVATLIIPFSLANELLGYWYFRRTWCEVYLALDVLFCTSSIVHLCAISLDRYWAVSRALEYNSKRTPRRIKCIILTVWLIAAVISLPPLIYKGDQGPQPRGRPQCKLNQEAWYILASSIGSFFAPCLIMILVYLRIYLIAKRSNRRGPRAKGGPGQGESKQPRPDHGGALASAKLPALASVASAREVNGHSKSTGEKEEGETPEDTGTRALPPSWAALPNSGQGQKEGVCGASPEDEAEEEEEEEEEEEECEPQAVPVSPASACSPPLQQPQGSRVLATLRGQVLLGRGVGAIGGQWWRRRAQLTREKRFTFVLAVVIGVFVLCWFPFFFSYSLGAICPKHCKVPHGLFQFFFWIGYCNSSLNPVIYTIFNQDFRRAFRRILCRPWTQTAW
Experimental: (§1) To determine if any off-target receptor-binding effects are present, all the novel ligands were sent to the National Institute of Mental Health (NIMH), Psychoactive Drug Screening Program (PDSP). The ligands were screened over a panel of 47 receptors, ion channels, and transporters to determine any other possible interactions with […]. The hERG-binding was also determined. […] No binding of the test compounds to calcium channels was observed. […] It is necessary to screen the compounds for hERG-binding during the early process of drug discovery. The unintentional binding of many drugs to hERG can cause blockade of hERG K+ channels in the heart, which can cause many side effects including cardiac arrhythmias and sudden death. […] All of the α5 imidazodiazepines were tested for hERG-binding.
(§2) The NIMH PDSP assay protocol book [https://kidbdev.med.unc.edu/databases/PDSP%20Protocols%20II%202013-03-28.pdf accessed on 23 April 2023]. describes the protocols for primary and secondary radio-ligand binding assays. These assays were carried out in a final volume of 125 µL per well in the appropriate binding buffer.
(§3) The binding of a ligand to a receptor, ion channel, or transporter was determined in the […] of 10 µM of the appropriate reference compound. […] Plates were incubated in the dark for 90 min at rt, and the reactions were stopped by vacuum filtration onto 0.3% polyethyleneimine (PEI) soaked 96-well filter mats using a 96-well Filtermateharvester. This was followed by three washes with cold PBS buffer. Radioactivity was then counted on a Microbeta counter. Nonlinear regression was used to analyze the data with N = 6 replicates.

5-HT1A = target: T2, 5-HT1A (Homo sapiens, UniProt P08908); test: PDSP primary binding 5-HT1A; conditions: 1.5 h; primary binding, 10,000 nM; last figure of the line = mean of the 4 before it; read-out: 5-HT1A, PDSP raw data, mean
T2 construct: purchased NIMH Psychoactive Drug Screening Program (PDSP)
T2 sequence (P08908 1-422): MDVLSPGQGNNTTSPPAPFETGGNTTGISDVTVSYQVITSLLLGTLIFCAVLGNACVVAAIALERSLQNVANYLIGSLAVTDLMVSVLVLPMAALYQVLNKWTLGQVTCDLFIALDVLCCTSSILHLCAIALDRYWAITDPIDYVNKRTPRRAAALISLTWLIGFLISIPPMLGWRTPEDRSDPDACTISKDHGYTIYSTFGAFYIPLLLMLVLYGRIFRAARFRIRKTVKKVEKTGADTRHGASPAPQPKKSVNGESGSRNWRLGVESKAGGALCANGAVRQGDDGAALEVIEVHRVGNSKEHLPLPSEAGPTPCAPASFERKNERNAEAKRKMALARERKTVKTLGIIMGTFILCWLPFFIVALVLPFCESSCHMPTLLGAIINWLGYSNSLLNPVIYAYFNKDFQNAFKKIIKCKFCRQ
Experimental: as §1, §2, §3

MOR = target: T3, MOR (Homo sapiens, UniProt P35372); test: PDSP radioligand binding at MOR; conditions: 1.5 h
T3 construct: purchased NIMH Psychoactive Drug Screening Program (PDSP)
From the text: Opioid receptors are a family of inhibitory G-coupled protein receptors where opioids act as the ligand. The kappa opioid receptors (KOR), µ and δ opioid receptors (MOR and DOR), and nociception opioid receptor (NOP) fall under the family of opioids receptors. It has been reported that oxadiazole imidazodiazepines can mediate analgesic and anti-inflammatory properties mediated also by the κ opioid receptor (KOR). The binding at KOR is usually silent. The affinities of the test compounds for KOR, DOR, and MOR were determined using radioligand binding assays at a screening concentration of 10,000 nM in collaboration with the National Institute of Mental Health’s Psychoactive Drug Screening Program (PDSP), as mentioned before. Concentration-dependent experiments were conducted to determine Ki values for the compounds that exceeded more than 50% radioligand displacement in primary binding assays.
as §2, §3

D5 = target: T4, D5 (Homo sapiens, UniProt P21918); test: PDSP primary binding D5; conditions: 1.5 h; primary binding, 10,000 nM; last figure of the line = mean of the 4 before it; read-out: D5, PDSP raw data, mean
T4 construct: purchased NIMH Psychoactive Drug Screening Program (PDSP)
Experimental: as §1, §2, §3

A2A = target: T5, A2A (Homo sapiens, UniProt P29274); test: PDSP primary binding A2A; conditions: primary binding, 10,000 nM; last figure of the line = mean of the 4 before it
T5 construct: purchased NIMH Psychoactive Drug Screening Program (PDSP)
Experimental: as §1, §2, §3

Alpha1D = target: T6, Alpha1D (Homo sapiens, UniProt P25100); test: PDSP primary binding Alpha1D; conditions: 1.5 h; primary binding, 10,000 nM; last figure of the line = mean of the 4 before it; read-out: Alpha1D, PDSP raw data, mean
T6 construct: purchased NIMH Psychoactive Drug Screening Program (PDSP)
T6 sequence (P25100 1-572): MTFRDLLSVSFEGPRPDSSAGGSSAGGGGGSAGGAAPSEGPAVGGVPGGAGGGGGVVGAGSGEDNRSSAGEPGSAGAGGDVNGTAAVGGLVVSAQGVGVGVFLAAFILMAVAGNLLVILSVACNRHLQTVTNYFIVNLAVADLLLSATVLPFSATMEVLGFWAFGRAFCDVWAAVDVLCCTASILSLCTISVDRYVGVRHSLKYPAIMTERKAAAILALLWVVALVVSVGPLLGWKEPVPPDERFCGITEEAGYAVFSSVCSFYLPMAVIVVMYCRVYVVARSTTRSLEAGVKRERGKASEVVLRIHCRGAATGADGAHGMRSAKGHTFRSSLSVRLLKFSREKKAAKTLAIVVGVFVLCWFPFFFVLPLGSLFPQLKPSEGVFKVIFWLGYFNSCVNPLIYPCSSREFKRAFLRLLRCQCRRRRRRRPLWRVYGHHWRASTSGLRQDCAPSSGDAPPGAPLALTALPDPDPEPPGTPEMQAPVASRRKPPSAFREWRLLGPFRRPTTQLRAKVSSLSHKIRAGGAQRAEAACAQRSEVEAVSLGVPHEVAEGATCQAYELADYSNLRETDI
Experimental: as §1, §2, §3

[1] = at 10,000 nM, N = 5, [3H]-DAMGO 1.20 nM, read-out: Primary Binding %MOR
[2] = primary binding, 10,000 nM, last figure of the line = mean of the 4 before it, read-out: MOR, PDSP raw data, mean

T3 sequence (P35372 whole entry): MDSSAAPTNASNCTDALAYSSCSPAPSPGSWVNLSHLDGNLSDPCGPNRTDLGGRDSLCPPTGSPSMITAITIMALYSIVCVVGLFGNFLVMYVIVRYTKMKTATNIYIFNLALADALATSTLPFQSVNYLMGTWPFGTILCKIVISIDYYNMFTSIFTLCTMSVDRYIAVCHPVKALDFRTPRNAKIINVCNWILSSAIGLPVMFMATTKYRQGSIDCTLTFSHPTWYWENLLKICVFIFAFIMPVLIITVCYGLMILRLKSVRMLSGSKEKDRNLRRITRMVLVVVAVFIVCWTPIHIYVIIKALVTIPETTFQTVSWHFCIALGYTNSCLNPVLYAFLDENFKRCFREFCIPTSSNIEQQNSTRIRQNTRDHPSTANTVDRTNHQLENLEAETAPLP
T4 sequence (P21918 whole entry): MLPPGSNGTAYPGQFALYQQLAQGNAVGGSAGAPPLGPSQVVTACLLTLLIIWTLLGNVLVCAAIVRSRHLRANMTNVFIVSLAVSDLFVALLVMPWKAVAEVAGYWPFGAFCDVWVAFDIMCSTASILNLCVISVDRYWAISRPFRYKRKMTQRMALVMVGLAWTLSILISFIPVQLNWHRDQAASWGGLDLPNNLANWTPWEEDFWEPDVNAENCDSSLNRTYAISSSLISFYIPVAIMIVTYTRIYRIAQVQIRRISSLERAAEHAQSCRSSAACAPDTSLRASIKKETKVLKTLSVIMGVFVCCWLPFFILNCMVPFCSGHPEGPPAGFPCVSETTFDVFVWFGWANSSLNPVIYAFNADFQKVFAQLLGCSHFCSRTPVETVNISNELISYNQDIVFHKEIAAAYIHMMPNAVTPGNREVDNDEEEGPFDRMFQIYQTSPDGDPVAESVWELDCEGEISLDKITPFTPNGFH
T5 sequence (P29274 whole entry): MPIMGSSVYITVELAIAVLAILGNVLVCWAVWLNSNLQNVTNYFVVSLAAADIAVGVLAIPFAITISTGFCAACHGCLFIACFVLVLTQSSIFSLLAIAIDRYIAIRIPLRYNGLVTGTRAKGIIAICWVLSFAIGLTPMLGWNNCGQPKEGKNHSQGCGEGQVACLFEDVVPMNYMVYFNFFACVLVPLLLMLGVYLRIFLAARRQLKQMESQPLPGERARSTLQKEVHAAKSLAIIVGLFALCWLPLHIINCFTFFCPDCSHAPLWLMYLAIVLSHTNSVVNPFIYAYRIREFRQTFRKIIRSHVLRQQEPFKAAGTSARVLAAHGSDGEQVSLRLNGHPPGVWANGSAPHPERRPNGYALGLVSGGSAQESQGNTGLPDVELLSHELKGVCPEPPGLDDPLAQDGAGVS

## C[C@H]1N=C(c2ccccc2F)c2cc(-c3ccccc3)ccc2-n2cnc(C(=O)N(C)C)c21 [Compound 5, (R)-6-(2′-Fluorophenyl)-N,N,4-trimethyl-8-phenyl-4H-benzo[f]imidazo[1,5-a][1,4]diazepine-3-carboxamide]
Alpha2B
  inhibition at 10 µM: 68.9%
5-HT1A
  inhibition at 10 µM: 2.37%
MOR; [1]
  inhibition at 10 µM: -11.2 ± 5.72%
MOR; [2]
  inhibition at 10 µM: -11.2%
D5
  inhibition at 10 µM: 1.22%
A2A
  A2A, PDSP raw data, mean: 11.57%
Alpha1D
  inhibition at 10 µM: 3.57%

## C#Cc1ccc2c(c1)C(c1ccccc1Cl)=N[C@H](C)c1c(C(=O)NC)ncn1-2 [Compound 21, (R)-6-(2′-Chlorophenyl)-8-ethynyl-N,4-dimethyl-4H-benzo[f]imidazo[1,5-a][1,4]diazepine-3-carboxamide]
Alpha2B
  inhibition at 10 µM: -2.45%
5-HT1A
  inhibition at 10 µM: 4.88%
MOR; [1]
  inhibition at 10 µM: -3.57 ± 7.68%
MOR; [2]
  inhibition at 10 µM: -3.57%
D5
  inhibition at 10 µM: 12.2%
A2A
  A2A, PDSP raw data, mean: -13.5%
Alpha1D
  inhibition at 10 µM: -5.53%

## C#Cc1ccc2c(c1)C(c1ccccn1)=N[C@@H](C)c1c(C(=O)NC)ncn1-2 [Compound 23, (S)-8-Ethynyl-N,4-dimethyl-6-(pyridin-2′-yl)-4H-benzo[f]imidazo[1,5-a][1,4]diazepine-3-carboxamide]
Alpha2B
  inhibition at 10 µM: 4.64%
5-HT1A
  inhibition at 10 µM: 2.23%
MOR; [1]
  inhibition at 10 µM: 5.24 ± 10.7%
MOR; [2]
  inhibition at 10 µM: 5.24%
D5
  inhibition at 10 µM: -16.1%
A2A
  A2A, PDSP raw data, mean: -9.74%
Alpha1D
  inhibition at 10 µM: -6.54%

## C#Cc1ccc2c(c1)C(c1ccccc1Cl)=N[C@H](C)c1c(C(=O)N(C)CC)ncn1-2 [Compound 29]
Alpha2B
  inhibition at 10 µM: 7.23%
5-HT1A
  inhibition at 10 µM: -2.7%
MOR; [1]
  inhibition at 10 µM: 7.31 ± 9.54%
MOR; [2]
  inhibition at 10 µM: 7.31%
D5
  inhibition at 10 µM: -17.2%
A2A
  A2A, PDSP raw data, mean: -10.24%
Alpha1D
  inhibition at 10 µM: -11.9%

## C#Cc1ccc2c(c1)C(c1ccccn1)=N[C@@H](C)c1c(C(=O)N(C)C)ncn1-2 [Compound 31, (S)-8-Ethynyl-N,N,4-trimethyl-6-(pyridin-2′-yl)-4H-benzo[f]imidazo[1,5-a][1,4]diazepine-3-carboxamide]
Alpha2B
  inhibition at 10 µM: -0.93%
5-HT1A
  inhibition at 10 µM: -0.48%
MOR; [1]
  inhibition at 10 µM: 4.55 ± 12.5%
MOR; [2]
  inhibition at 10 µM: 4.55%
D5
  inhibition at 10 µM: -11.1%
A2A
  A2A, PDSP raw data, mean: -10.83%
Alpha1D
  inhibition at 10 µM: -6.09%

## C#Cc1ccc2c(c1)C(c1ccccc1F)=N[C@H](C)c1c(C(=S)N(C)C)ncn1-2 [Compound 33, (R)-8-Ethynyl-6-(2′-fluorophenyl)-N,N,4-trimethyl-4H-benzo[f]imidazo[1,5-a][1,4]diazepine-3-carbothioamide]
Alpha2B
  inhibition at 10 µM: 68.9%
5-HT1A
  inhibition at 10 µM: 2.37%
MOR; [1]
  inhibition at 10 µM: -2.4 ± 5.72%
MOR; [2]
  inhibition at 10 µM: -11.2%
D5
  inhibition at 10 µM: 1.22%
A2A
  A2A, PDSP raw data, mean: 11.57%
Alpha1D
  inhibition at 10 µM: 3.57%

## CCc1noc(-c2ncn3c2[C@@H](C)N=C(c2ccccc2F)c2cc(-c4ccccc4)ccc2-3)n1 [Compound 35, (R)-3-Ethyl-5-(6-(2′-fluorophenyl)-4-methyl-8-phenyl-4H-benzo[f]imidazo[1,5-a][1,4]diazepin-3-yl)-1,2,4-oxadiazole]
Alpha2B
  inhibition at 10 µM: 45.7%
5-HT1A
  inhibition at 10 µM: 28.9%
MOR; [1]
  inhibition at 10 µM: 14.8 ± 6.32%
MOR; [2]
  inhibition at 10 µM: 14.8%
D5
  inhibition at 10 µM: 23.6%
A2A
  A2A, PDSP raw data, mean: 19.84%
Alpha1D
  inhibition at 10 µM: -0.4%

## CCc1noc(-c2ncn3c2[C@@H](C)N=C(c2ccccc2F)c2cc(Cl)ccc2-3)n1 [Compound 36, (R)-5-(8-Chloro-6-(2′-fluorophenyl)-4-methyl-4H-benzo[f]imidazo[1,5-a][1,4]diazepin-3-yl)-3-ethyl-1,2,4-oxadiazole]
Alpha2B
  inhibition at 10 µM: 16.6%
5-HT1A
  inhibition at 10 µM: 3%
MOR; [1]
  inhibition at 10 µM: 19.2 ± 5.47%
MOR; [2]
  inhibition at 10 µM: 19.2%
D5
  inhibition at 10 µM: 3.16%
A2A
  A2A, PDSP raw data, mean: 1.43%
Alpha1D
  inhibition at 10 µM: -14.3%

## CC(C)c1noc(-c2ncn3c2[C@@H](C)N=C(c2ccccc2F)c2cc(Cl)ccc2-3)n1 [Compound 37, (R)-5-(8-Chloro-6-(2′-fluorophenyl)-4-methyl-4H-benzo[f]imidazo[1,5-a][1,4]diazepin-3-yl)-3-isopropyl-1,2,4-oxadiazole]
Alpha2B
  inhibition at 10 µM: 18.5%
5-HT1A
  inhibition at 10 µM: -6%
MOR; [1]
  inhibition at 10 µM: 48.6 ± 4.17%
MOR; [2]
  inhibition at 10 µM: 48.6%
D5
  inhibition at 10 µM: 17.1%
A2A
  A2A, PDSP raw data, mean: -1.87%
Alpha1D
  inhibition at 10 µM: 4.09%

## C[C@H]1N=C(c2ccccc2F)c2cc(Cl)ccc2-n2cnc(-c3nc(C4CC4)no3)c21 [Compound 38, (R)-5-(8-Chloro-6-(2′-fluorophenyl)-4-methyl-4H-benzo[f]imidazo[1,5-a][1,4]diazepin-3-yl)-3-cyclopropyl-1,2,4-oxadiazole]
Alpha2B
  inhibition at 10 µM: 17.6%
5-HT1A
  inhibition at 10 µM: -1.57%
MOR; [1]
  inhibition at 10 µM: 30.2 ± 6.46%
MOR; [2]
  inhibition at 10 µM: 30.2%
D5
  inhibition at 10 µM: 14.1%
A2A
  A2A, PDSP raw data, mean: 19.95%
Alpha1D
  inhibition at 10 µM: -2.84%

## CCc1noc(-c2ncn3c2CN=C(c2ccccc2F)c2cc(C4CC4)ccc2-3)n1 [Compound 44, 5-(8-Cyclopropyl-6-(2′-fluorophenyl)-4H-benzo[f]imidazo[1,5-a][1,4]diazepin-3-yl)-3-ethyl-1,2,4-oxadiazole]
Alpha2B
  inhibition at 10 µM: 36.6%
5-HT1A
  inhibition at 10 µM: 36.1%
MOR; [1]
  inhibition at 10 µM: 26.4 ± 6.01%
MOR; [2]
  inhibition at 10 µM: 26.4%
D5
  inhibition at 10 µM: 9.06%
A2A
  A2A, PDSP raw data, mean: 21.36%
Alpha1D
  inhibition at 10 µM: 1.28%

Source: article PMC10303271, “Synthesis and Receptor Binding Studies of α5 GABAAR Selective Novel Imidazodiazepines Targeted for Psychiatric and Cognitive Disorders” (Molecules, 2023)
